Reference: patent US20240067693A1, “POLYPEPTIDES AND USES THEREOF” (MEDIMMUNE LIMITED, priority 2020, published 2024)
Numbered stars: 1 amine (or outer) side, 2 acyl side, 3 side chain; on linkers, the order of the positions; unused ones are H or OH. Bridge positions count the residues as written; N and C are the ends. Square brackets hold non-standard residues; d marks the D form. Side chains are listed from the residue outwards. Peptide text beside a SMILES is read from it. * marks the point of attachment. C18 diacid = O=C(O)CCCCCCCCCCCCCCCCC(=O)*; γGlu = O=C(O)[C@H](CCC(=O)[*:2])N[*:1]; Aib = CC(C)(N)C(=O)O

Key:
[1] = target: T1, human amylin receptor (calcitonin receptor co-expressed with receptor activity modifying protein, RAMP3) (hAMYR3) (Homo sapiens, UniProt O60896+P30988); assay: cAMP production in 1321N1 cells with stable recombinant expression of human amylin receptor (hAMYR3); assay type: cell-based; conditions: for Ratio (selectivity hAMYR vs hCTR, ratio of EC50 values at the two receptors): EC50 hCTR / EC50 hAMYR3; for EC50: cAMP, 1321N1 cells, assay buffer with 0.1% BSA, read-out: EC50 (pM) hAMYR3
T1 construct: expressed in transfected cells
T1 sequence (P30988 25-474): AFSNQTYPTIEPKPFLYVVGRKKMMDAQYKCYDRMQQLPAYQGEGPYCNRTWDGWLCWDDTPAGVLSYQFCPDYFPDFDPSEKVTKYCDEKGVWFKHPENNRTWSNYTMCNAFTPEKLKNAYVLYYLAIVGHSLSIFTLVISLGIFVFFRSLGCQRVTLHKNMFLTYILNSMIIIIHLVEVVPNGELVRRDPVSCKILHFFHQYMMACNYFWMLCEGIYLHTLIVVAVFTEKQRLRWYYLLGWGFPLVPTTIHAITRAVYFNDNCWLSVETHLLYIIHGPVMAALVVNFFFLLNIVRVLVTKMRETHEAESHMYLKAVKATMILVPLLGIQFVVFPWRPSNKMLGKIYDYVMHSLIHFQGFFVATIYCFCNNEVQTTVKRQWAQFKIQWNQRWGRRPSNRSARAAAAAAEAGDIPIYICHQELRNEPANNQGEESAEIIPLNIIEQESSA
T1 sequence (O60896 24-148 partner): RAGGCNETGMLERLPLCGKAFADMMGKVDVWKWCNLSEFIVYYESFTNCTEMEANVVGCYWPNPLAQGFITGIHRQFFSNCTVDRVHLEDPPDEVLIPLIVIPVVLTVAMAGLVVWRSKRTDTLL
Procedure, shortened: (§1)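 Thawed cells in HBSS/0.1% BSA/25 mM HEPES pH 7.4 with 0.5 mM IBMX were incubated with peptides 30 min at room temperature; cAMP read by HTRF. EC50 from 4-parameter fit of % activation relative to maximal amylin or calcitonin effect.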

[2] = target: T2, human calcitonin receptor (hCTR) (Homo sapiens, UniProt P30988); assay: cAMP production in 1321N1 cells with stable recombinant expression of human calcitonin receptor (hCTR); assay type: cell-based; conditions: cAMP, 1321N1 cells, assay buffer with 0.1% BSA; read-out: EC50 (pM) hCTR
T2 construct: expressed in transfected cells
T2 sequence (P30988 25-474): T1 sequence (P30988 25-474)
Procedure, shortened: as §1

| SMILES | Ratio (selectivity hAMYR vs hCTR, ratio of EC50 values at the two receptors) [1] | EC50 [1] [pM] | EC50 [2] [pM] |
| --- | --- | --- | --- |
| CC[C@H](C)[C@H](NC(=O)[C@@H]1CCCN1C(=O)CNC(=O)[C@H](Cc1ccccc1)NC(=O)[C@H](CC(N)=O)NC(=O)[C@@H]1CCCN1C(=O)[C@H](CO)NC(=O)[C@H](CO)NC(=O)[C@H](Cc1c[nH]cn1)NC(=O)C(C)(C)NC(=O)[C@H](CC(C)C)NC(=O)[C@H](Cc1ccccc1)NC(=O)[C@H](CC(N)=O)NC(=O)[C@H](C)NC(=O)[C@H](CC(C)C)NC(=O)[C@H](CCCNC(=N)N)NC(=O)[C@H](CCC(N)=O)NC(=O)[C@@H](NC(=O)[C@H](C)NC(=O)[C@@H]1CSSC[C@H](NC(=O)[C@H](CCCCN)NC(=O)[C@@H](N)CCCCNC(=O)CC[C@H](NC(=O)CCCCCCCCCCCCCCCCC(=O)O)C(=O)O)C(=O)N[C@@H](CC(N)=O)C(=O)N[C@@H]([C@@H](C)O)C(=O)N[C@@H](C)C(=O)N[C@@H]([C@@H](C)O)C(=O)N1)[C@@H](C)O)C(=O)N[C@@H](CC(C)C)C(=O)N1CCC[C@H]1C(=O)N1CCC[C@H]1C(=O)N[C@H](C(=O)N[C@@H](CCC(=O)O)C(=O)N[C@H](C(=O)NCC(=O)N[C@@H](CO)C(=O)N[C@@H](CC(N)=O)C(=O)N[C@H](C(=O)N[C@@H](Cc1ccc(O)cc1)C(N)=O)[C@@H](C)O)C(C)C)[C@@H](C)O [Peptide 138] (H-K([γGlu-C18 diacid])KCNTATCATQRLANFL[Aib]HSSPNFGPILPPTEVGSNTY-NH2; disulfide 3-8) | 4.1 | 612 | 2510 |
| CC[C@H](C)[C@H](NC(=O)[C@@H]1CCCN1C(=O)CNC(=O)[C@H](Cc1ccccc1)NC(=O)[C@H](CC(N)=O)NC(=O)C(C)(C)NC(=O)[C@H](CO)NC(=O)[C@H](CO)NC(=O)[C@H](Cc1c[nH]cn1)NC(=O)[C@H](CO)NC(=O)[C@H](CC(C)C)NC(=O)[C@H](Cc1ccccc1)NC(=O)[C@H](CC(N)=O)NC(=O)[C@H](C)NC(=O)[C@H](CC(C)C)NC(=O)[C@H](CCCNC(=N)N)NC(=O)[C@H](CCC(N)=O)NC(=O)[C@@H](NC(=O)[C@H](C)NC(=O)[C@@H]1CSSC[C@H](NC(=O)[C@H](CCCCN)NC(=O)[C@@H](N)CCCCNC(=O)CC[C@H](NC(=O)CCCCCCCCCCCCCCCCC(=O)O)C(=O)O)C(=O)N[C@@H](CC(N)=O)C(=O)N[C@@H]([C@@H](C)O)C(=O)N[C@@H](C)C(=O)N[C@@H]([C@@H](C)O)C(=O)N1)[C@@H](C)O)C(=O)N[C@@H](CC(C)C)C(=O)N1CCC[C@H]1C(=O)N1CCC[C@H]1C(=O)N[C@H](C(=O)N[C@@H](CCCNC(=N)N)C(=O)N[C@H](C(=O)NCC(=O)N[C@@H](CO)C(=O)N[C@@H](CC(N)=O)C(=O)N[C@H](C(=O)N[C@@H](Cc1ccc(O)cc1)C(N)=O)[C@@H](C)O)C(C)C)[C@@H](C)O [Peptide 52, K(γE-C18diacid)K[CNTATC]ATQRLANFLSHSS(Aib)NFGPILPPTRVGSNTY-amide] (H-K([γGlu-C18 diacid])KCNTATCATQRLANFLSHSS[Aib]NFGPILPPTRVGSNTY-NH2; disulfide 3-8; N-terminus assumed) | 12 | 89 | 1100 |
| CC[C@H](C)[C@H](NC(=O)[C@@H]1CCCN1C(=O)CNC(=O)[C@H](Cc1ccccc1)NC(=O)[C@H](CC(N)=O)NC(=O)C(C)(C)NC(=O)[C@H](CO)NC(=O)[C@H](CO)NC(=O)[C@H](Cc1c[nH]cn1)NC(=O)[C@H](CCCNC(=N)N)NC(=O)[C@H](CC(C)C)NC(=O)[C@H](Cc1ccccc1)NC(=O)[C@H](CC(N)=O)NC(=O)[C@H](C)NC(=O)[C@H](CC(C)C)NC(=O)[C@H](CCCNC(=N)N)NC(=O)[C@H](CCC(N)=O)NC(=O)[C@@H](NC(=O)[C@H](C)NC(=O)[C@@H]1CSSC[C@H](NC(=O)[C@@H](N)CCCCNC(=O)CC[C@H](NC(=O)CC[C@H](NC(=O)CCCCCCCCCCCCCCCCC(=O)O)C(=O)O)C(=O)O)C(=O)N[C@@H](CC(N)=O)C(=O)N[C@@H]([C@@H](C)O)C(=O)N[C@@H](C)C(=O)N[C@@H]([C@@H](C)O)C(=O)N1)[C@@H](C)O)C(=O)N[C@@H](CC(C)C)C(=O)N1CCC[C@H]1C(=O)N1CCC[C@H]1C(=O)N[C@H](C(=O)N[C@@H](CC(N)=O)C(=O)N[C@H](C(=O)NCC(=O)N[C@@H](CO)C(=O)NC(C)(C)C(=O)N[C@H](C(=O)N[C@@H](Cc1ccc(O)cc1)C(N)=O)[C@@H](C)O)C(C)C)[C@@H](C)O [Peptide 92, K(γE-γE-C18diacid)[CNTATC]ATQRLANFLRHSS(Aib)NFGPILPPTNVGS(Aib)TY-amide] (H-K([γGlu-γGlu-C18 diacid])CNTATCATQRLANFLRHSS[Aib]NFGPILPPTNVGS[Aib]TY-NH2; disulfide 2-7; N-terminus assumed) | 130 | 341 | 44400 |
| CC[C@H](C)[C@H](NC(=O)[C@@H]1CCCN1C(=O)CNC(=O)[C@H](Cc1ccccc1)NC(=O)[C@H](CC(N)=O)NC(=O)C(C)(C)NC(=O)[C@H](CO)NC(=O)[C@H](CO)NC(=O)[C@H](Cc1c[nH]cn1)NC(=O)[C@H](CO)NC(=O)[C@H](CC(C)C)NC(=O)[C@H](Cc1ccccc1)NC(=O)[C@H](CC(N)=O)NC(=O)[C@H](C)NC(=O)[C@H](CC(C)C)NC(=O)[C@H](CCCNC(=N)N)NC(=O)[C@H](CCC(N)=O)NC(=O)[C@@H](NC(=O)[C@H](C)NC(=O)[C@@H]1CSSC[C@H](NC(=O)[C@H](CCCCN)NC(=O)[C@@H](N)CCCCNC(=O)CC[C@H](NC(=O)CCCCCCCCCCCCCCCCC(=O)O)C(=O)O)C(=O)N[C@@H](CC(N)=O)C(=O)N[C@@H]([C@@H](C)O)C(=O)N[C@@H](C)C(=O)N[C@@H]([C@@H](C)O)C(=O)N1)[C@@H](C)O)C(=O)N[C@@H](CC(C)C)C(=O)N1CCC[C@H]1C(=O)N1CCC[C@H]1C(=O)N[C@H](C(=O)N[C@@H](Cc1c[nH]cn1)C(=O)N[C@H](C(=O)NCC(=O)N[C@@H](CO)C(=O)N[C@@H](CC(N)=O)C(=O)N[C@H](C(=O)N[C@@H](Cc1ccc(O)cc1)C(N)=O)[C@@H](C)O)C(C)C)[C@@H](C)O [Peptide 51, K(γE-C18diacid)K[CNTATC]ATQRLANFLSHSS(Aib)NFGPILPPTHVGSNTY-amide] (H-K([γGlu-C18 diacid])KCNTATCATQRLANFLSHSS[Aib]NFGPILPPTHVGSNTY-NH2; disulfide 3-8; N-terminus assumed) | 13 | 126 | 1640 |
| CC[C@H](C)[C@H](NC(=O)[C@@H]1CCCN1C(=O)CNC(=O)[C@H](Cc1ccccc1)NC(=O)[C@H](CC(N)=O)NC(=O)C(C)(C)NC(=O)[C@H](CO)NC(=O)[C@H](CO)NC(=O)[C@H](Cc1c[nH]cn1)NC(=O)[C@H](CCCNC(=N)N)NC(=O)[C@H](CC(C)C)NC(=O)[C@H](Cc1ccccc1)NC(=O)[C@H](CC(N)=O)NC(=O)[C@H](C)NC(=O)[C@H](CC(C)C)NC(=O)[C@H](CCCNC(=N)N)NC(=O)[C@H](CCC(N)=O)NC(=O)[C@@H](NC(=O)[C@H](C)NC(=O)[C@@H]1CSSC[C@H](NC(=O)[C@@H](N)CCCCNC(=O)CC[C@H](NC(=O)CCCCCCCCCCCCCCCCC(=O)O)C(=O)O)C(=O)N[C@@H](CC(N)=O)C(=O)N[C@@H]([C@@H](C)O)C(=O)N[C@@H](C)C(=O)N[C@@H]([C@@H](C)O)C(=O)N1)[C@@H](C)O)C(=O)N[C@@H](CC(C)C)C(=O)N1CCC[C@H]1C(=O)N1CCC[C@H]1C(=O)N[C@H](C(=O)N[C@@H](CCCNC(=N)N)C(=O)N[C@H](C(=O)NCC(=O)N[C@@H](CO)C(=O)N[C@@H](CC(N)=O)C(=O)N[C@H](C(=O)N[C@@H](Cc1ccc(O)cc1)C(N)=O)[C@@H](C)O)C(C)C)[C@@H](C)O [Peptide 76, K(γE-C18diacid)[CNTATC]ATQRLANFLRHSS(Aib)NFGPILPPTRVGSNTY-amide] (H-K([γGlu-C18 diacid])CNTATCATQRLANFLRHSS[Aib]NFGPILPPTRVGSNTY-NH2; disulfide 2-7; N-terminus assumed) | 107 | 209 | 22300 |
